Biological target: T1, rat muscarinic receptor subtype 1 (M1) (Rattus norvegicus, UniProt P08482)
T1 construct: expressed in transfected cells
T1 sequence (P08482 1-460): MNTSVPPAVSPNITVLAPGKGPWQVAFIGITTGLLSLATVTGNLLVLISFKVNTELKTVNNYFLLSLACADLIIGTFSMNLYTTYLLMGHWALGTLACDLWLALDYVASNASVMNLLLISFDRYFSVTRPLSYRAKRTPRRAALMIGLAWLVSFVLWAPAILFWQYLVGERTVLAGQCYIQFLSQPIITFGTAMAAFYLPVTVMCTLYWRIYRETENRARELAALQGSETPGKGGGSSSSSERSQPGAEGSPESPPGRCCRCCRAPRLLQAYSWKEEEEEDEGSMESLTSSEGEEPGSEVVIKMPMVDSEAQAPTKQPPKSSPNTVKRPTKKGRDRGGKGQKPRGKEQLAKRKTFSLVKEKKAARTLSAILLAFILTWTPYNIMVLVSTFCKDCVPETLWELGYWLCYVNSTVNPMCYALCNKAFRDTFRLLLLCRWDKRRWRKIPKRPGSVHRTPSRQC
Test: Calcium mobilization assay in rM1-CHO cells, PAM activity with EC20 acetylcholine
Assay type: cell-based
Details: for EC50: read-out: rM1 pEC50 ± SEM (converted)
Description: page 2: Procedures for Biological Experiments Calcium mobilization assays: To measure the functional activity of positive allosteric modulator (PAM) compounds in a cellular assay, human or rat muscarinic receptor subtype 1 (M1) was stably expressed in the Chinese hamster ovary (CHO) cells to evoke an increase in intracellular calcium to an EC20 concentration of acetylcholine (ACh) agonist. The stable M1-CHO cells were cultured in F12 medium containing 10% fetal bovine serum, 20 mM HEPES, 100 units/mL antibiotics/antimycotic, 0.5 mg/ml G418. All reagents used were from Life Technologies (Carlsbad, CA) unless otherwise noted. Briefly, the day before the assay, stable M1-CHO cells (15,000 cells/20 μL/well) were plated in black-walled, clear-bottomed, 384 well plates (Greiner Bio-One, Monroe, NC) in the culture medium without G418, and then incubated overnight at 37 °C in the presence of 5% CO2. The next day, calcium assay buffer (Hank’s balanced salt solution (HBSS), 20 mM HEPES, 2.5 mM Probenecid, 4.16 mM sodium bicarbonate (Sigma-Aldrich, St. Louis, MO) was prepared to dilute […] calcium indicator dye. […] curves in DMSO using the Bravo Liquid Handler (Agilent, Santa Clara, CA), transferred to a 384 well daughter plates using an Echo acoustic liquid handler (Beckman Coulter, Indianapolis, Indiana), and diluted in assay Buffer to a 2X final concentration. The agonist plates were prepared using acetylcholine (ACh, Sigma-Aldrich, St. Louis, MO) concentrations for the EC20 and ECMAX responses by diluting in assay buffer to a 5X final concentration. The 2X dye solution (2.3 µM) was prepared by mixing a 2.3 mM Fluo-4-AM stock in DMSO with 10% (w/v) pluronic acid F- 127 in a 1:1 ratio in assay buffer. Using a microplate washer (BioTek, Winooski, VT), cells were washed with assay buffer for 3 times to remove medium. After the final wash, 20 μL of assay buffer remained in the cell plates. Immediately, 20 μL of the 2X dye solution (final 1.15 µM) was added to each well of the cell plate using a Multidrop Combi dispenser (Thermo Fisher, Waltham, MA). After cells were incubated with the dye solutions for 45 min at 37 °C in the presence of 5% CO2, the dye solutions were removed and replaced with assay buffer using a microplate washer, leaving 20 μL of assay buffer in the cell plate. The compound, agonist, and cell plates were placed inside the Functional Drug Screening System uCell (FDSS uCell, Hamamatsu, Japan) to measure the calcium flux. The triple add protocol was used to measure Ca kinetics; Compound, ACh for EC20, and ACh for ECMAX adds in an order. Briefly, after establishment of a fluorescence baseline S2 page 3: for 2 seconds (excitation, 480 nm; emission, 530 nm), first add occurred by adding 20 µL of test compound to the cells, and the response was measured for 140 seconds. This is followed by second add; 10 µL (5X) of an EC20 concentration of ACh agonist was added to the cells, and the response of the cells was measured for 125 seconds. Immediately, the third add occurred by adding 12 ul assay buffer or 5X of an EC max concentration of ACh and the response of the cells was measured for 90 seconds. Assay buffer was added to the wells that incubated with compounds followed by EC20 concentration of ACh. Agonists containing ECmax concentration of ACh were added to the wells that incubated with DMSO and assay buffer from the 1st and 2nd adds to measure maximum Ca responses (ECmax). Calcium fluorescence was recorded as fold over basal fluorescence and raw data were normalized to the maximal response to ACh agonist. […]

rM1 %ACh Max ± SEM	EC50	Compound
83 ± 2.8 %ACh Max	490 nM	Cn1cc(-c2ccc(Cc3cc(C(=O)N[C@H]4CCCC[C@@H]4O)nn3C3CCCC3)cc2)cn1 [17k]
83 ± 4.1 %ACh Max	347 nM	Cn1cc(-c2ccc(Cc3cc(C(=O)N[C@H]4CCOC[C@@H]4O)nn3C3CCCC3)cc2)cn1 [17g]

Source: paper PMC12257413, “Discovery of a Novel sp^3‑Rich M1 Positive Allosteric Modulators (PAMs) Chemotype via Scaffold Hopping” (ACS Medicinal Chemistry Letters, 2025)
